Results: patent US20260258030A1, “USE AND TREATMENT METHOD OF AZETIDINE DERIVATIVE” (SICHUAN KELUN-BIOTECH BIOPHARMACEUTICAL CO., LTD., priority 2022, published 2026)

Experiments:
PKA (protein kinase A) = PKA (protein kinase A) (Homo sapiens, UniProt P17612); test: In vitro kinase inhibition, enzymatic assay, PKA; assay type: biochemical; settings: at a concentration of 200 nM; read-out: inhibition rate on PKA
Excerpt: (§1) An in vitro enzymatic assay system was used to test the inhibitory effect of Compound 8 on certain kinase targets.

[1] = molecular target: p70S6K (p70 ribosomal protein S6 kinase) (Homo sapiens, UniProt P23443); test: In vitro kinase inhibition, enzymatic assay, p70S6K; assay type: biochemical; settings: at a concentration of 200 nM; read-out: inhibition rate on p70S6K
Sequence of p70S6K (p70 ribosomal protein S6 kinase) (P23443 whole entry): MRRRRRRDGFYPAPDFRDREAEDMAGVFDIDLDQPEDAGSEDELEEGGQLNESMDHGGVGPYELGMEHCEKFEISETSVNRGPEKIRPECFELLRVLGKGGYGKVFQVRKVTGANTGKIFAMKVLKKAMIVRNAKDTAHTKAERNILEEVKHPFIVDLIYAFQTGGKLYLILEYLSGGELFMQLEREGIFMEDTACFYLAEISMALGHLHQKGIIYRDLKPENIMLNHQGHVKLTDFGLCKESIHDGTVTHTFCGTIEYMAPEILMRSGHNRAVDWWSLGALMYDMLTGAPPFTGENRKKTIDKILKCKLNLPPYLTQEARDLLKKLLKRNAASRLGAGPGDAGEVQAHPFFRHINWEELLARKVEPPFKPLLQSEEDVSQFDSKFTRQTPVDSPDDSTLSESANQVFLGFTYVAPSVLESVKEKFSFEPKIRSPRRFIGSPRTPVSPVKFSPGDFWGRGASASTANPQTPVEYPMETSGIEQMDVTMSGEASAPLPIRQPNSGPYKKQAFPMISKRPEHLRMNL
Excerpt: as §1

[2] = test system: STAT3 phosphorylation induced by cytokine IL-6 stimulation in CD4+ T cells; test: Inhibition of STAT3 phosphorylation induced by IL-6 in CD4+ T cells in human whole blood (flow cytometry); assay type: cell-based
Excerpt: (§2) The inhibitory effect of Compound 8 on STAT5 phosphorylation induced by cytokine IL-2 stimulation in CD4+ T cells in human whole blood, as well as on STAT3 phosphorylation induced by cytokine IL-6 stimulation in CD4+ T cells in human whole blood, was detected using flow cytometry.

[3] = test system: STAT5 phosphorylation induced by cytokine IL-2 stimulation in CD4+ T cells; test: Inhibition of STAT5 phosphorylation induced by IL-2 in CD4+ T cells in human whole blood (flow cytometry); assay type: cell-based
Excerpt: as §2

With CCS(=O)(=O)N1CC(CC#N)(n2cc(-c3ccnc4[nH]ccc34)cn2)C1 [Compound 8] the inhibition at 0.2 µM (PKA (protein kinase A)) was 75%, the inhibition at 0.2 µM [1] was 67% and the IC50 [2] was 1510 ± 60 nM. For the same molecule, the IC50 [3] was 460 ± 30 nM.
